# Source: patent US20250011299A1, “PYRIDAZINYL AMINO DERIVATIVES AS ALK5 INHIBITORS” (CHIESI FARMACEUTICI S.P.A., priority 2021, published 2025)
# Target: T1, human ALK5 (Homo sapiens, UniProt P36897)
# T1 construct: human ALK5 (recombinant TGF β1 N-term GST-tagged, 80-end); GST (N); purchased
# T1 sequence (P36897 80-503 limits assumed): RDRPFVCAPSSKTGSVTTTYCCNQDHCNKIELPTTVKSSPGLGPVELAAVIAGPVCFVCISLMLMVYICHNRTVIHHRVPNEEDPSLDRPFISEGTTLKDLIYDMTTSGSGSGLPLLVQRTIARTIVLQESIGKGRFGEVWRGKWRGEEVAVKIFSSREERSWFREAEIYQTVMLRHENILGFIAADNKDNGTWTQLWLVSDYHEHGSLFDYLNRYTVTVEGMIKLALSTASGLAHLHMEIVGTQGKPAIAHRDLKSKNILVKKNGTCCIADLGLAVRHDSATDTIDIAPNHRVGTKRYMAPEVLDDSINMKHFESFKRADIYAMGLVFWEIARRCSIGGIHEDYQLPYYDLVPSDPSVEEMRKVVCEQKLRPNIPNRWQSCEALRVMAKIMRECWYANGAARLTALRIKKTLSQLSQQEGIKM
# Test: ADP-GLO Kinases assay of ALK5 enzymatic activity
# Assay type: biochemical
# Conditions: purified recombinant human ALK5, TGFβ1 peptide substrate, pIC50 converted to pKi by Cheng-Prusoff, high ATP protocol (15 μM) for very potent compounds, 25° C.
# Outline: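 Purified ALK5 preincubated 15 min with compound, then reacted with substrate and ATP; ADP formed read by ADP-Glo luminescence after 120 min or 60 min reaction, all steps at 25° C. 11-point concentration-response; pIC50 converted to pKi via Cheng-Prusoff.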
row,Compound,Ki [nM]
1,"CN1CCN(CCC(=O)Nc2cc(Nc3cc(-c4cc(Cl)ccc4F)nnc3SCC3COC(C)(C)O3)ccn2)CC1 (stereo not drawn) [Example 85, N-(4-{[6-(5-chloro-2-fluorophenyl)-3-{[(2,2-dimethyl-1,3-dioxolan-4-yl)methyl]sulfanyl}pyridazin-4-yl]amino}pyridin-2-yl)-3-(4-methylpiperazin-1-yl)propanamide]",≤ 0.1
2,"CN1CCN(CCC(=O)Nc2cc(Nc3cc(-c4cc(Cl)ccc4F)nnc3N(C)CCC(O)C(F)(F)F)ccn2)CC1 (stereo not drawn) [Example 110, N-(4-{[6-(5-chloro-2-fluorophenyl)-3-[methyl(4,4,4-trifluoro-3-hydroxybutyl)amino]pyridazin-4-yl]amino}pyridin-2-yl)-3-(4-methylpiperazin-1-yl)propanamide]",≤ 0.1
3,"COc1nnc(-c2cc(Cl)ccc2F)cc1Nc1ccnc2cc(OCCN3CCN(C)CC3)ccc12 [Example 46, N-[6-(5-chloro-2-fluorophenyl)-3-methoxypyridazin-4-yl]-7-[2-(4-methylpiperazin-1-yl)ethoxy]quinolin-4-amine]",≤ 0.1
4,"CN1CCN(CCCC(=O)Nc2cc(Nc3cc(-c4cc(Cl)ccc4F)nnc3SCCO)ccn2)CC1 [Example 23, N-(4-{[6-(5-chloro-2-fluorophenyl)-3-[(2-hydroxyethyl)sulfanyl]pyridazin-4-yl]amino}pyridin-2-yl)-4-(4-methylpiperazin-1-yl)butanamide]",0.126 to 0.316
5,"Nc1cc(Nc2cc(-c3cc(Cl)ccc3F)nnc2OCC(F)(F)F)ccn1 [Example 49, N4-[6-(5-chloro-2-fluorophenyl)-3-(2,2,2-trifluoroethoxy)pyridazin-4-yl]pyridine-2,4-diamine]",0.398 to 3.16
6,"COC(=O)c1cc2c(Nc3cc(-c4cc(Cl)ccc4F)nnc3OCCC[N+](C)(C)C)ccnc2[nH]1 [Example 11, (3-{[6-(5-chloro-2-fluorophenyl)-4-{[2-(methoxycarbonyl)-1H-pyrrolo[2,3-b]pyridin-4-yl]amino}pyridazin-3-yl]oxy}propyl)trimethylazanium chloride]",0.398 to 3.16
7,"CN1CCN([C@H]2C[C@H](C(=O)Nc3cc(Nc4cc(-c5cc(Cl)ccc5F)nnc4OC4CCOC4)ccn3)C2)CC1 (single isomer, unassigned) [Example 114, N-(4-{[6-(5-chloro-2-fluorophenyl)-3-(oxolan-3-yloxy)pyridazin-4-yl]amino}pyridin-2-yl)-3-(4-methylpiperazin-1-yl)cyclobutane-1-carboxamide]",0.126 to 0.316
8,"CN1CCCN(CC(=O)Nc2cc(Nc3cc(-c4cc(Cl)ccc4F)nnc3SCCO)ccn2)CC1 [Example 27, N-(4-{[6-(5-chloro-2-fluorophenyl)-3-[(2-hydroxyethyl)sulfanyl]pyridazin-4-yl]amino}pyridin-2-yl)-2-(4-methyl-1,4-diazepan-1-yl)acetamide]",≤ 0.1
9,"CN1CCN(CCC(=O)Nc2cc(Nc3cc(-c4cc(Cl)ccc4F)nnc3OC[C@H]3C[C@@H](O)C3)ccn2)CC1 [Example 71, Cis N-(4-{[6-(5-chloro-2-fluorophenyl)-3-[(3-hydroxycyclobutyl)methoxy]pyridazin-4-yl]amino}pyridin-2-yl)-3-(4-methylpiperazin-1-yl)propanamide]",≤ 0.1
10,"CN1CCN(CCOc2nnc(-c3cc(Cl)ccc3F)cc2Nc2ccnc(N)c2)CC1 [Example 70, N4-[6-(5-chloro-2-fluorophenyl)-3-[2-(4-methylpiperazin-1-yl)ethoxy]pyridazin-4-yl]pyridine-2,4-diamine]",0.398 to 3.16
11,"O=C(Nc1cc(Nc2cc(-c3cc(Cl)ccc3F)nnc2SCCO)ccn1)[C@H]1C[C@@H](N2CCSCC2)C1 [Example 89, Cis N-(4-{[6-(5-chloro-2-fluorophenyl)-3-[(2-hydroxyethyl)sulfanyl]pyridazin-4-yl]amino}pyridin-2-yl)-3-(thiomorpholin-4-yl)cyclobutane-1-carboxamide]",≤ 0.1
12,"COCCOc1nnc(-c2cc(Cl)ccc2F)cc1Nc1ccnc(NC(=O)CCN2CCN(C)CC2)c1 [Example 31, N-(4-{[6-(5-chloro-2-fluorophenyl)-3-(2-methoxyethoxy)pyridazin-4-yl]amino}pyridin-2-yl)-3-(4-methylpiperazin-1-yl)propanamide]",≤ 0.1
13,"CN1C[C@@H]2C[C@H]1CN2[C@H]1C[C@H](C(=O)Nc2cc(Nc3cc(-c4cc(Cl)ccc4F)nnc3SCCO)ccn2)C1 [Example 88, Trans N-(4-{[6-(5-chloro-2-fluorophenyl)-3-[(2-hydroxyethyl)sulfanyl]pyridazin-4-yl]amino}pyridin-2-yl)-3-[(1S,4S)-5-methyl-2,5-diazabicyclo[2.2.1]heptan-2-yl]cyclobutane-1-carboxamide]",≤ 0.1
14,"CN1CCN(CCC(=O)Nc2cc(Nc3cc(-c4cc(Cl)ccc4F)nnc3SC(C)(C)CO)ccn2)CC1 [Example 93, N-(4-{[6-(5-chloro-2-fluorophenyl)-3-[(1-hydroxy-2-methylpropan-2-yl)sulfanyl]pyridazin-4-yl]amino}pyridin-2-yl)-3-(4-methylpiperazin-1-yl)propanamide]",0.126 to 0.316
15,"CN1CCN(CCC(=O)Nc2cc(Nc3cc(-c4cc(Cl)ccc4F)nnc3N(C)CC3CCOC3=O)ccn2)CC1 (stereo not drawn) [Example 108, N-(4-{[6-(5-chloro-2-fluorophenyl)-3-{methyl[(2-oxooxolan-3-yl)methyl]amino}pyridazin-4-yl]amino}pyridin-2-yl)-3-(4-methylpiperazin-1-yl)propanamide]",≤ 0.1
16,"CN1C2CC1CN([C@H]1C[C@@H](C(=O)Nc3cc(Nc4cc(-c5cc(Cl)ccc5F)nnc4SCCO)ccn3)C1)C2 [Example 175, Cis N-(4-{[6-(5-chloro-2-fluorophenyl)-3-[(2-hydroxyethyl)sulfanyl]pyridazin-4-yl]amino}pyridin-2-yl)-3-{6-methyl-3,6-diazabicyclo[3.1.1]heptan-3-yl}cyclobutane-1-carboxamide]",≤ 0.1
17,"CN1CCN(CCC(=O)Nc2cc(Nc3cc(-c4cc(Cl)ccc4F)nnc3N3CC(C(=O)O)C3)ccn2)CC1 [Example 99, 1-[6-(5-chloro-2-fluorophenyl)-4-({2-[3-(4-methylpiperazin-1-yl)propanamido]pyridin-4-yl}amino)pyridazin-3-yl]azetidine-3-carboxylic acid]",0.126 to 0.316

# The next lines start with the values.
row,Ki [nM],Compound
1,≤ 0.1,"CN1CCN(CCC(=O)Nc2cc(Nc3cc(-c4cc(Cl)ccc4F)nnc3SCC3CCCC(=O)O3)ccn2)CC1 (racemic) [Example 204, N-(4-{[6-(5-chloro-2-fluorophenyl)-3-{[(6-oxooxan-2-yl)methyl]sulfanyl}pyridazin-4-yl]amino}pyridin-2-yl)-3-(4-methylpiperazin-1-yl)propanamide]"
2,≤ 0.1,"CN1CCCN(CC(=O)Nc2cc(Nc3cc(-c4cc(Cl)ccc4F)nnc3N(C)CC3(C)CCOC3=O)ncn2)CC1 (single isomer, unassigned) [Example 208, N-(6-{[6-(5-chloro-2-fluorophenyl)-3-{methyl[(3-methyl-2-oxooxolan-3-yl)methyl]amino}pyridazin-4-yl]amino}pyrimidin-4-yl)-2-(4-methyl-1,4-diazepan-1-yl)acetamide]"
3,≤ 0.1,"O=C(CCN1CCNCC1)Nc1cc(Nc2cc(-c3cc(Cl)ccc3F)nnc2SCCO)ccn1 [Example 153, N-(4-{[6-(5-chloro-2-fluorophenyl)-3-[(2-hydroxyethyl)sulfanyl]pyridazin-4-yl]amino}pyridin-2-yl)-3-(piperazin-1-yl)propanamide]"
4,≤ 0.1,"CN1CCN(CCC(=O)Nc2cc(Nc3cc(-c4cc(Cl)ccc4F)nnc3N(C)CC3(CO)CCOC3=O)ccn2)CC1 (stereo not drawn) [Example 152, N-(4-{[6-(5-chloro-2-fluorophenyl)-3-({[3-(hydroxymethyl)-2-oxooxolan-3-yl]methyl}(methyl)amino)pyridazin-4-yl]amino}pyridin-2-yl)-3-(4-methylpiperazin-1-yl)propanamide]"
5,≤ 0.1,"CN1CCN(CCC(=O)Nc2cc(Nc3cc(-c4cc(Cl)ccc4F)nnc3N(C)CC3(C)CCOC3=O)ncn2)CC1 (racemic) [Example 137, N-(6-{[6-(5-chloro-2-fluorophenyl)-3-{methyl[(3-methyl-2-oxooxolan-3-yl)methyl]amino}pyridazin-4-yl]amino}pyrimidin-4-yl)-3-(4-methylpiperazin-1-yl)propanamide]"
6,≤ 0.1,"C[C@@H]1CN([C@H]2C[C@H](C(=O)Nc3cc(Nc4cc(-c5cc(Cl)ccc5F)nnc4N(C)CC4(C)CCOC4=O)ncn3)C2)C[C@H](C)N1 (mixture of isomers) [Example 185, N-(6-{[6-(5-chloro-2-fluorophenyl)-3-{methyl[(3-methyl-2-oxooxolan-3-yl)methyl]amino}pyridazin-4-yl]amino}pyrimidin-4-yl)-3-(3,5-dimethylpiperazin-1-yl)cyclobutane-1-carboxamide]"
7,≤ 0.1,"C[C@@H]1CN(CCC(=O)Nc2cc(Nc3cc(-c4cc(Cl)ccc4F)nnc3SCCO)ccn2)C[C@H](C)N1 [Example 178, N-(4-{[6-(5-chloro-2-fluorophenyl)-3-[(2-hydroxyethyl)sulfanyl]pyridazin-4-yl]amino}pyridin-2-yl)-3-(3,5-dimethylpiperazin-1-yl)propanamide]"
